# In patent US11485735B2, “Selective CDK4/6 inhibitor and preparation thereof” (Wuxi Shuangliang Biotechnology Co., Ltd., priority 2019, dated 2022):
# Legend:
# CRBN = target: T1, CRBN (Homo sapiens, UniProt Q96SW2); assay: In-vitro inhibition assay of CRBN activity (fluorescence polarization, Cy5-Thalidomide); format: binding; details: Cy5-Thalidomide 10 nM, CRBN 180 nM, 27° C., 60 min
# T1 construct: purchased Wuxi Biortus Biosciences Co. Ltd
# Protocol: The final volume for assay was 20 μL, and the reaction temperature was 27° C. CRBN was produced by Wuxi Biortus Biosciences Co. Ltd. The concentration of the kinase was determined by the optimization experiment, and the kinase was diluted with an assay buffer (50 mM Tris, pH 7.5, 100 mM NaCl, and 0.01% Pluronic acid) to obtain a corresponding kinase solution (2× concentration). The compound was dissolved in dimethyl sulfoxide (DMSO) to reach a concentration of 10 mM. […] 5 μL of the test compound solution was mixed with 5 μL of the substrate solution, and 10 μL of the kinase solution was added to the mixture. The mixture was incubated at 27° C. for 60 min. Each assay was conducted in at least two replicates. […].
# The final concentrations of the reagents in the assay were as follows. […] The data of fluorescence polarization assay were read on TECAN infinite M1000. Data were calculated by using GraphPad Prism version 6.0, and IC50 values were obtained by adjusting the non-linear regression models of the dose response curves.
# [1] = test system: human colon cancer COLO205 cells; assay: Growth inhibition of tumor cells cultured in vitro, CellTiter-Glo, COLO205; format: cell-based; details: for IC50: Homo sapiens, COLO 205, 72 h, COLO205, 72 h, CellTiter-Glo; for inhibitory effect on human colon cancer COLO205 cells (in words): summary of the table
# How it was run: (§1)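 Cells were seeded at 6000/well, COLO205 in RPMI-1640 with 10% FBS and MCF-7 in MEM with 10% FBS plus 0.01 mg/mL insulin, and grown 24 h before dosing. Compound dilutions in medium (10 to 0.0015 μM/L before addition, DMSO <0.1%) were tested in triplicate for 72 h at 37° C. IC50 was derived from CellTiter-Glo luminescence.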
# CDK6/CyclinD3 = target: T2, CDK6/CyclinD3 (Homo sapiens, UniProt Q00534); assay: In-vitro kinase inhibitory activity, CDK6/CyclinD3 (Caliper EZ Reader II mobility shift); format: biochemical; details: CDK6/CyclinD3 20 nM, ATP 2 mM, Peptide 1 μM, 27° C., 120 min; read-out: IC50 (half maximal inhibitory concentration, nM) CDK6
# T2 construct: purchased Wuxi Biortus Biosciences Co. Ltd
# T2 sequence (Q00534 whole entry, species assumed): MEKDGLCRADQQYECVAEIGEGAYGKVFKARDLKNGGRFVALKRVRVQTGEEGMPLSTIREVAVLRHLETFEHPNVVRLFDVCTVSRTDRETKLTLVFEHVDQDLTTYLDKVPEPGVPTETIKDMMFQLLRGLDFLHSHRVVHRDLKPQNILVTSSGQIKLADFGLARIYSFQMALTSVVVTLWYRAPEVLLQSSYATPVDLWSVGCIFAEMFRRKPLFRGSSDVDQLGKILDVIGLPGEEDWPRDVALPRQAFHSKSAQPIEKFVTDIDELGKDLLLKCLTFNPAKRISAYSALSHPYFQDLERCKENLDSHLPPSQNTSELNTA
# T2 sequence (P30281 whole entry partner, species assumed): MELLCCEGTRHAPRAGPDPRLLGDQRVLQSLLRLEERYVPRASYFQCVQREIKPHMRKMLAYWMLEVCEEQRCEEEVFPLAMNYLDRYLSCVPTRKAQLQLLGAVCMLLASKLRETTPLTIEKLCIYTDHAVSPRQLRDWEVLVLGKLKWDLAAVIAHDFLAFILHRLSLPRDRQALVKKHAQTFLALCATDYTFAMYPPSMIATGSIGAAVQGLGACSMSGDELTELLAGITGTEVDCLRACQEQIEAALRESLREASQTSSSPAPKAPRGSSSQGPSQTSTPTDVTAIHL
# How it was run: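 Compound was preincubated 10 min with CDK6/CyclinD3, then peptide substrate plus ATP was added and the reaction ran 120 min at 27° C. before EDTA stop. Substrate and phosphorylated product were separated by microfluidic mobility shift, at least two replicates. IC50 from non-linear regression of dose-response curves.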
# CDK4/CyclinD3 = target: T3, CDK4/CyclinD3 (Homo sapiens, UniProt P11802); assay: In-vitro kinase inhibitory activity, CDK4/CyclinD3 (Caliper EZ Reader II mobility shift); format: biochemical; details: CDK4/CyclinD3 20 nM, ATP 2 mM, Peptide 1 μM, 27° C., 180 min; read-out: IC50 (half maximal inhibitory concentration, nM) CDK4
# T3 construct: purchased Wuxi Biortus Biosciences Co. Ltd
# T3 sequence (P11802 whole entry, species assumed): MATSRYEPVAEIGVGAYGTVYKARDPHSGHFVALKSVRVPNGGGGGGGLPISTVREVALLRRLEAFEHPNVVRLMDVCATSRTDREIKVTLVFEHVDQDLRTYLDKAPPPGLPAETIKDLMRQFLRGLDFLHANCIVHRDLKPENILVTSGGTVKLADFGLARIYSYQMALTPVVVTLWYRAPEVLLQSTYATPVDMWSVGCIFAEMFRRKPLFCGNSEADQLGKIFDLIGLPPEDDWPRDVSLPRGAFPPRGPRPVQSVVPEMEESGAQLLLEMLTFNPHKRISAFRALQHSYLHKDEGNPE
# T3 sequence (P30281 whole entry partner, species assumed): as the sequence (P30281 whole entry partner, species assumed) above
# How it was run: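 Compound was preincubated 10 min with CDK4/CyclinD3 in Tris pH 8.0 with 5 mM MgCl2, then peptide substrate and ATP were added for 180 min at 27 °C, and the reaction was stopped with EDTA. Substrate and product were separated by mobility shift. IC50 comes from non-linear dose-response fits, with at least two replicates.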
# [2] = test system: human breast cancer MCF-7 cells; assay: Growth inhibition of tumor cells cultured in vitro, CellTiter-Glo, MCF-7; format: cell-based; details: for IC50: Homo sapiens, MCF7, 72 h, MCF-7, 72 h, CellTiter-Glo; for inhibitory effect on human breast cancer MCF-7 cells (in words): summary of the table
# How it was run: as §1
# CDK2 = CDK2 (Homo sapiens, UniProt P24941); assay: In-vitro kinase inhibitory activity, CDK2 (selectivity); format: biochemical; details: read-out: IC50 (half maximal inhibitory concentration, nM) CDK2
# CDK9 = CDK9 (Homo sapiens, UniProt P50750); assay: In-vitro kinase inhibitory activity, CDK9 (selectivity); format: biochemical; details: read-out: IC50 (half maximal inhibitory concentration, nM) CDK9
# Chain of CDK9 (P50750 whole entry, species assumed): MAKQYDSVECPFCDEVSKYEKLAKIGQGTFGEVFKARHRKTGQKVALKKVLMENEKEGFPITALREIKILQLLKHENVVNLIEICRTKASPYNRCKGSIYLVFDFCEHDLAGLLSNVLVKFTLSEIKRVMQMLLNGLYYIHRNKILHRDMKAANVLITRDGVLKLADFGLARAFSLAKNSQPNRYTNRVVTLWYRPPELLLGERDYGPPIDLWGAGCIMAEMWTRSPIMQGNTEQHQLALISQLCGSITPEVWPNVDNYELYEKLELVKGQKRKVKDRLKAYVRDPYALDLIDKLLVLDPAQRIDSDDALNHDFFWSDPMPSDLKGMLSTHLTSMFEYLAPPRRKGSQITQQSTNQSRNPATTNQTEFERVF
# Chain of CDK9 (O60563 whole entry partner, species assumed): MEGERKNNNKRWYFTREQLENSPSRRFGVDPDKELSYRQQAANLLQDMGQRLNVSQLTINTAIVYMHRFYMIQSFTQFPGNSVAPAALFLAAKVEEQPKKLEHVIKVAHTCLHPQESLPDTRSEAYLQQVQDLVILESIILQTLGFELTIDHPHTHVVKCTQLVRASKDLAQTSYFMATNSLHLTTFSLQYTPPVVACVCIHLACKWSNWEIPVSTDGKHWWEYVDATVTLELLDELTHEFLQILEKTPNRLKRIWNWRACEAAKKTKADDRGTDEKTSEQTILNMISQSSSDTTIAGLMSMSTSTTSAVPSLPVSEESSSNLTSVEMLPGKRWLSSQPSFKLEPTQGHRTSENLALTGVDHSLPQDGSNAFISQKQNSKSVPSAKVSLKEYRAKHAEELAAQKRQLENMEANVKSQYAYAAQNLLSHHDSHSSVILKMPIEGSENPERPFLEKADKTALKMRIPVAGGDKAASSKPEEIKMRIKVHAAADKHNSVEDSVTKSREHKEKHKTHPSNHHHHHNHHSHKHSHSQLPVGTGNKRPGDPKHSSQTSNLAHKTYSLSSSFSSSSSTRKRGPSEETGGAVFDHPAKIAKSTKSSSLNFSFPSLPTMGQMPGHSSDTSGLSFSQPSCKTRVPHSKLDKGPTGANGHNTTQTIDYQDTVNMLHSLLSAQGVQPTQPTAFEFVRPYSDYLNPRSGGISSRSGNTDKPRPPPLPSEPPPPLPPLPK
# T1 sequence (Q96SW2 whole entry, species assumed): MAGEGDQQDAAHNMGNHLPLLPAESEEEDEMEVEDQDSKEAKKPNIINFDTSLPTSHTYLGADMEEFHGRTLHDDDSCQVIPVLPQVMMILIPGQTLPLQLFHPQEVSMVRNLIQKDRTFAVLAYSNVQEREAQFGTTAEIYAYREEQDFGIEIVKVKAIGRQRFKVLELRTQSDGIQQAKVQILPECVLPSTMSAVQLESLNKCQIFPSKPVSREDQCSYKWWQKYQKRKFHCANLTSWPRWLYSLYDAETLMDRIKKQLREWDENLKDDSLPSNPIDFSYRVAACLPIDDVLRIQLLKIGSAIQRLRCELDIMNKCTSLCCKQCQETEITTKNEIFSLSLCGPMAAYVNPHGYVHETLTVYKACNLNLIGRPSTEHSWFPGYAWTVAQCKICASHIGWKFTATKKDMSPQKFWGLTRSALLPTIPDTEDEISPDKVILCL
IC50 (CRBN) [nM],IC50 [1] [nM],IC50 (CDK6/CyclinD3) [nM],IC50 (CDK4/CyclinD3) [nM],IC50 [2] [nM],IC50 (CDK2) [nM],IC50 (CDK9) [nM],Structure (SMILES),inhibitory effect on human colon cancer COLO205 cells (in words) [1],inhibitory effect on human breast cancer MCF-7 cells (in words) [2]
2080,69.2,9.7,10.7,50.5,> 10000,8640,"CC(=O)c1c(C)c2cnc(Nc3ccc(N4CCN(CCN5CCC(CN6CCN(c7ccc8c(c7)CN(C7CCC(=O)NC7=O)C8=O)CC6)CC5)CC4)cn3)nc2n(C2CCCC2)c1=O.Cl.Cl.Cl (single isomer, unassigned) [Compound 4, 3-(5-(4-((1-(2-(4-(6-((6-acetyl-8-cyclopentyl-5-methyl-7-oxo-7,8-dihydropyrido[2,3-d]pyrimidin-2-yl)amino)pyridin-3-yl)piperazin-1-yl)ethyl)piperidin-4-yl)methyl)piperazin-1-yl)-1-oxoisoindolin-2-yl)piperidine-2,6-dione trihydrochloride]",relatively good inhibitory effects,relatively good inhibitory effects
3000,45.7,21.3,38.8,> 10000,> 10000,4180,"CC(=O)c1c(C)c2cnc(Nc3ccc(N4CCN(CCN5CCN(c6ccc7c(c6)CN(C6CCC(=O)NC6=O)C7=O)CC5)CC4)cn3)nc2n(C2CCCC2)c1=O (single isomer, unassigned) [Compound 1, 3-(5-(4-(2-(4-(6-((6-acetyl-8-cyclopentyl-5-methyl-7-oxo-7,8-dihydropyrido[2,3-d]pyrimidin-2-yl)amino)pyridin-3-yl)piperazin-1-yl)ethyl)piperazin-1-yl)-1-oxoisoindolin-2-yl)piperidine-2,6-dione]",relatively good inhibitory effects,
1210,96.2,16.1,19.9,821,9000,3810,"CC(=O)c1c(C)c2cnc(Nc3ccc(N4CCN(CCN5CCC(C(=O)N6CCN(c7ccc8c(c7)CN([C@H]7CCC(=O)NC7=O)C8=O)CC6)CC5)CC4)cn3)nc2n(C2CCCC2)c1=O [Compound 8, (S)-3-(5-(4-(1-(2-(4-(6-((6-acetyl-8-cyclopentyl-5-methyl-7-oxo-7,8-dihydropyrido[2,3-d]pyrimidin-2-yl)amino)pyridin-3-yl)piperazin-1-yl)ethyl)piperidin-4-carbonyl)piperazin-1-yl)-1-oxoisoindolin-2-yl)piperidine-2,6-dione]",relatively good inhibitory effects,
5280,291,6.6,10,30.4,9910,5470,"CC(=O)c1c(C)c2cnc(Nc3ccc(N4CCN(CCCCN5CCC(CN6CCN(c7ccc8c(c7)CN(C7CCC(=O)NC7=O)C8=O)CC6)CC5)CC4)cn3)nc2n(C2CCCC2)c1=O (stereo not drawn) [Compound 5, 3-(5-(4-((1-(4-(4-(6-((6-acetyl-8-cyclopentyl-5-methyl-7-oxo-7,8-dihydropyrido[2,3-d]pyrimidin-2-yl)amino)pyridin-3-yl)piperazin-1-yl)butyl)piperidin-4-yl)methyl)piperazin-1-yl)-1-oxoisoindolin-2-yl)piperidine-2,6-dione]",,relatively good inhibitory effects
